From PubChem BioAssay AID1259408 (Genetic Toxicology Data Bank (GENE-TOX), 2018) come the findings set out here.

Active and inactive are the calls of the source. No rule for the calls is given here.

The test system of this data set is GENE-TOX genotoxicity assays, various organisms and cells. Briefly: GENE-TOX mutagenicity studies.
The mark [1] stands for this setting: Species/Cell Type: Drosophila melanogaster, Assay Type: Sex-linked recessive lethal gene mutation, Assay Code: SRLT, Evaluation Type: Evaluation A (Pre-1980).
Setting [2] is: Species/Cell Type: Drosophila melanogaster, Assay Type: Sex-linked recessive lethal gene mutation, Assay Code: SRL-, Evaluation Type: Evaluation A (Pre-1980).
The mark [3] stands for this setting: Species/Cell Type: Salmonella typhimurium (one or more of the five standard strains: TA98, TA100, TA1535, TA1537, and TA1538), Assay Type: Histidine reverse gene mutation, Ames assay, Assay Code: SAL-, Evaluation Type: Evaluation A (Pre-1980).
The mark [4] stands for this setting: Species/Cell Type: Bacillus subtilis (H17 vs M45), Assay Type: Rec-assay, spot test, DNA effects (bacterial DNA repair), Assay Code: REWT, Evaluation Type: Evaluation A (Pre-1980).
The mark [5] stands for this setting: Species/Cell Type: Escherichia coli polA (W3119 vs P3478), Assay Type: Rec-assay, DNA effects (bacterial DNA repair), Assay Code: RE1T, Evaluation Type: Evaluation A (Pre-1980).
Where [6] appears, read: Species/Cell Type: Human, Assay Type: Sister-chromatid exchange (SCE) in vitro, Assay Code: SC1+D*, Activation: With metabolic activation, Dose Response: With dose response, Evaluation Type: Evaluation B (Post-1980).
Setting [7] is: Species/Cell Type: Salmonella typhimurium (one or more of the five standard strains: TA98, TA100, TA1535, TA1537, and TA1538), Assay Type: Histidine reverse gene mutation, Ames assay, Assay Code: SALT, Evaluation Type: Evaluation A (Pre-1980).
Setting [8] is: Species/Cell Type: Salmonella typhimurium (one or more of the five standard strains: TA98, TA100, TA1535, TA1537, and TA1538), Assay Type: Histidine reverse gene mutation, Ames assay, Assay Code: SAL+*, Activation: With metabolic activation, Evaluation Type: Evaluation A (Pre-1980).
[9] abbreviates: Species/Cell Type: Human, Assay Type: Sister-chromatid exchange (SCE) in vitro, Assay Code: SC1T, Evaluation Type: Evaluation B (Post-1980).
Setting [10] is: Species/Cell Type: Salmonella typhimurium (one or more of the five standard strains: TA98, TA100, TA1535, TA1537, and TA1538), Assay Type: Histidine reverse gene mutation, Ames assay, Assay Code: SAL+, Evaluation Type: Evaluation A (Pre-1980).
[11] abbreviates: Species/Cell Type: Bacillus subtilis (H17 vs M45), Assay Type: Rec-assay, spot test, DNA effects (bacterial DNA repair), Assay Code: REW+, Evaluation Type: Evaluation A (Pre-1980).
Where [12] appears, read: Species/Cell Type: Nonhuman, Assay Type: Sister-chromatid exchange (SCE) in vivo, Assay Code: SC3+D, Dose Response: With dose response, Evaluation Type: Evaluation B (Post-1980).

Consider `O=CNNc1nc(-c2ccco2)cs1`, for which the mutagenic call is “inactive; negative” (Species/Cell Type: Escherichia coli WP2, Assay Type: Tryptophan reverse gene mutation, Assay Code: WP2-, Evaluation Type: Evaluation A (Pre-1980)) and “inactive; negative” (Species/Cell Type: Escherichia coli WP2 UVRA, Assay Type: Tryptophan reverse gene mutation, Assay Code: WPU-, Evaluation Type: Evaluation A (Pre-1980)).

`Cn1c([N+](=O)[O-])cnc1/C=N/N1CC(CN2CCOCC2)OC1=O` (centres undefined): the mutagenic call reads like this: under setting [1], “no conclusion”; (Species/Cell Type: Mouse, Sex: Female, Assay Type: Spot test, gene mutation, Assay Code: MST+, Evaluation Type: Evaluation A (Pre-1980)) “active; positive”; (Species/Cell Type: Saccharomyces cerevisiae, Assay Type: Mitotic recombination or gene conversion, Assay Code: YEC-, Evaluation Type: Evaluation A (Pre-1980)) “inactive; negative”.

For `COc1cc(S(=O)(=O)O)c(C)cc1N=Nc1c(O)ccc2cc(S(=O)(=O)O)ccc12`, the mutagenic call was “inactive; negative” under setting [2] and “inactive; negative” under setting [3].

As to `CN(C)C(=O)N1CC1`, the mutagenic call (Species/Cell Type: Schizosaccharomyces pombe, Assay Type: Reverse gene mutation, Assay Code: YEZ+, Evaluation Type: Evaluation A (Pre-1980)) is “active; positive”.

Consider `CC1CCCCC1NC(=O)Nc1ccccc1` (centres undefined), for which the mutagenic call reads like this: under setting [4], “no conclusion”; under setting [2], “inactive; negative”; (Species/Cell Type: Escherichia coli WP2 UVRA, Assay Type: Tryptophan reverse gene mutation, Assay Code: WPU-*, Activation: With metabolic activation, Evaluation Type: Evaluation A (Pre-1980)) “inactive; negative”; under setting [5], “no conclusion”; (Species/Cell Type: Human diploid fibroblasts, Assay Type: Unscheduled DNA synthesis (UDS) in vitro, DNA effects, Assay Code: UDH-, Evaluation Type: Evaluation A (Pre-1980)) “inactive; negative”; (Species/Cell Type: Saccharomyces cerevisiae, Assay Type: Mitotic recombination or gene conversion, Assay Code: YEH-, Evaluation Type: Evaluation A (Pre-1980)) “inactive; negative”. The mutagenic call under setting [3] is “inactive; negative”.

In the case of `Nc1ccc2c(n1)[nH]c1ccccc12`, the mutagenic call under setting [6] was “active; positive”.

As to `Oc1ccc(Cl)c2cccnc12`, the mutagenic call under setting [7] is “no conclusion”.

Take `O=CNc1nc(-c2ccc([N+](=O)[O-])[nH]2)cs1`: the mutagenic call under setting [7] is recorded as “no conclusion”.

As for `CCOC(=O)N(C)C(=O)CSP(=S)(OCC)OCC`, the mutagenic call under setting [4] is “no conclusion”.

For the compound `CN(C)c1ccc(-c2ccc(N(C)C)cc2)cc1`, the mutagenic call under setting [3] was “inactive; negative”.

Consider `O=c1cc(CO)occ1O`, for which the mutagenic call under setting [8] was “active; positive”.

As to `COc1cccc(OC)c1O`, the mutagenic call is recorded as “no conclusion” (Species/Cell Type: Human lymphocytes, Assay Type: Sister-chromatid exchange (SCE) in vitro, Assay Code: SCLT, Evaluation Type: Evaluation B (Post-1980)) and “no conclusion” under setting [9].

For the compound `O=[N+]([O-])c1cc([N+](=O)[O-])c2ccc(S(=O)(=O)O)cc2c1O`, the mutagenic call is, setting by setting: under setting [4], “no conclusion”; (Species/Cell Type: Bacillus subtilis (H17 vs M45T), Assay Type: Rec-assay, spot test, DNA effects (bacterial DNA repair), Assay Code: REXT, Evaluation Type: Evaluation A (Pre-1980)) “no conclusion”; under setting [10], “active; positive”; under setting [7], “no conclusion”.

Consider `[Cl][Ge]([Cl])([Cl])[Cl]`, for which, under setting [11], the mutagenic call was “active; positive”.

For `O=[N+]([O-])C1c2ccccc2-c2ccccc21`, the mutagenic call (Species/Cell Type: Escherichia coli WP2 UVRA, Assay Type: Tryptophan reverse gene mutation, Assay Code: WPU+, Evaluation Type: Evaluation A (Pre-1980)) is “active; positive”.

For the compound `O=C(OC[C@@H]1O[C@H](OC(=O)c2cc(O)c(O)c(OC(=O)c3cc(O)c(O)c(O)c3)c2)[C@@H](OC(=O)c2cc(O)c(O)c(OC(=O)c3cc(O)c(O)c(O)c3)c2)[C@H](OC(=O)c2cc(O)c(O)c(OC(=O)c3cc(O)c(O)c(O)c3)c2)[C@H]1OC(=O)c1cc(O)c(O)c(OC(=O)c2cc(O)c(O)c(O)c2)c1)c1cc(O)c(O)c(OC(=O)c2cc(O)c(O)c(O)c2)c1`, the mutagenic call is, setting by setting: under setting [5], “no conclusion”; under setting [12], “active; positive”.

Consider `CCCCNC(=O)NS(=O)(=O)c1ccc(C)cc1`, for which the mutagenic call (Species/Cell Type: Mammalian polychromatic erythrocytes, Assay Type: Micronucleus test, chromosome aberrations, Assay Code: MNT+, Evaluation Type: Evaluation A (Pre-1980)) is “active; positive” and the mutagenic call under setting [12] was “active; positive”.

Regarding `O=[N+]([O-])c1ccc(N=Nc2c(O)ccc3ccccc23)c([N+](=O)[O-])c1`, the mutagenic call under setting [10] is “active; positive”.

For `ClC1=C(Cl)[C@]2(Cl)C3C(Cl)C(Cl)CC3[C@@]1(Cl)C2(Cl)Cl` (some centres undefined), the mutagenic call is, setting by setting: (Species/Cell Type: Chinese hamster lung (V79) cells, Assay Type: Forward gene mutation at the HPRT or ouabain locus, Assay Code: V79+, Evaluation Type: Evaluation A (Pre-1980)) “active; positive”; (Species/Cell Type: Rodents, Sex: Male, Assay Type: Dominant lethal test, Assay Code: DLTT, Evaluation Type: Evaluation A (Pre-1980)) “no conclusion”; (Species/Cell Type: Zea mays (corn), Assay Type: Gene mutation, Assay Code: ZEM+, Evaluation Type: Evaluation A (Pre-1980)) “active; positive”. The call (Species/Cell Type: Nonhuman, Assay Type: In vivo carcinogenicity studies, Assay Code: CCG+L, Evaluation Type: Evaluation A (Pre-1980)) is “active; positive”.

Take `O=[N+]([O-])c1ccc(N2CCN(Cc3ccccc3)CC2)c2c1no[n+]2[O-]`: the mutagenic call under setting [10] was “active; positive”.

Consider `C=C(C)c1ccccc1`, for which the mutagenic call was “active; positive” (Species/Cell Type: Human lymphocytes, Assay Type: Sister-chromatid exchange (SCE) in vitro, Assay Code: SCL+, Evaluation Type: Evaluation B (Post-1980)) and “active; positive” (Species/Cell Type: Human, Assay Type: Sister-chromatid exchange (SCE) in vitro, Assay Code: SC1+, Evaluation Type: Evaluation B (Post-1980)).

With `CCNC(N)=O`, where the note is “Species/Cell Type: Salmonella typhimurium, Assay Type: Forward and reverse gene mutation, host-mediated assay, Assay Code: HMA+, Evaluation Type: Evaluation A (Pre-1980)”, the mutagenic call was “active; positive”.

For `O=[As]O`, the mutagenic call runs as follows: under setting [11], “active; positive”; (Species/Cell Type: Chinese hamster ovary (CHO) cells, Assay Type: Forward gene mutation at the HPRT locus, Assay Code: CHOT, Evaluation Type: Evaluation B (Post-1980)) “no conclusion”; (Species/Cell Type: Human lymphocytes, Assay Type: Sister-chromatid exchange (SCE) in vitro, Assay Code: SCL+D*, Activation: With metabolic activation, Dose Response: With dose response, Evaluation Type: Evaluation B (Post-1980)) “active; positive”; under setting [6], “active; positive”; (Species/Cell Type: Mammalian polychromatic erythrocytes, Assay Type: Micronucleus test, chromosome aberrations, Assay Code: MNT+, Evaluation Type: Evaluation B (Post-1980)) “active; positive”; (Species/Cell Type: Nonhuman, Assay Type: Sister-chromatid exchange (SCE) in vitro, Assay Code: SC2+, Evaluation Type: Evaluation B (Post-1980)) “active; positive”. For the setting “Species/Cell Type: Syrian hamster embryo (SA7/SHE) cells, Assay Type: Cell transformation, viral enhanced, Assay Code: CT7+, Evaluation Type: Evaluation A (Pre-1980)”, the mutagenic call is “active; positive”.

Turning to `CCN(CC)CC[NH+]([O-])c1ccc(C)c2sc3cc(Cl)ccc3c(=O)c12` (centres undefined), the mutagenic call under setting [8] is “active; positive”.

As for `CC(C)(c1ccc(OCC2CO2)cc1)c1ccc(OCC2CO2)cc1` (centres undefined), under setting [8], the mutagenic call is “active; positive”.

Take `CC(C)C[C@H](NP(=O)(O)O[C@@H]1O[C@@H](C)[C@H](O)[C@@H](O)[C@H]1O)C(=O)N[C@@H](Cc1c[nH]c2ccccc12)C(=O)O`: the mutagenic call under setting [9] is “no conclusion”.

Take `CC1CCCCN1N=O` (centres undefined): the mutagenic call was “no conclusion” (Species/Cell Type: Drosophila melanogaster, Assay Type: Aneuploidy, partial sex chromosome loss, chromosome aberrations, Assay Code: DAPT, Evaluation Type: Evaluation A (Pre-1980)); “inactive; negative” (Species/Cell Type: Drosophila melanogaster, Assay Type: Aneuploidy, whole sex chromosome loss, chromosome aberrations, Assay Code: DAC-M, Evaluation Type: Evaluation A (Pre-1980)); “no conclusion” under setting [1]; “active; positive” (Species/Cell Type: Saccharomyces cerevisiae, Assay Type: Forward gene mutation, Assay Code: YEF+*, Activation: With metabolic activation, Evaluation Type: Evaluation A (Pre-1980)); “active; positive” (Species/Cell Type: Saccharomyces cerevisiae, Assay Type: Reverse gene mutation, Assay Code: YER+*, Activation: With metabolic activation, Evaluation Type: Evaluation A (Pre-1980)); “active; positive” under setting [8].

Consider `Nc1nc(-c2cc([N+](=O)[O-])c[nH]2)cs1`, for which the mutagenic call under setting [7] is on record as “no conclusion”.
